Publication PMC4490613 (Journal of Neuroinflammation, 2015)
Like-named read-outs stand apart in the source and are kept apart here.

How the values were obtained:
hCB2 [1] = biological target: T1, hCB2 (Homo sapiens, UniProt P34972); experiment: […]GTPγS binding, CHO-hCB2 membranes; assay type: biochemical
T1 construct: gene CNR2; full-length receptor in CHO-K1 cells, membranes or intact cells; PathHunter CHO-K1-HOMSA-CNR2 for beta-arrestin

hCOX-2 = biological target: T2, hCOX-2 (Homo sapiens, UniProt P35354); experiment: fluorescent COX inhibitor assay (ADHP), recombinant hCOX-2; assay type: biochemical; conditions: read-out: h COX-2 / AA
T2 construct: gene PTGS2
T2 sequence (P35354 18-604): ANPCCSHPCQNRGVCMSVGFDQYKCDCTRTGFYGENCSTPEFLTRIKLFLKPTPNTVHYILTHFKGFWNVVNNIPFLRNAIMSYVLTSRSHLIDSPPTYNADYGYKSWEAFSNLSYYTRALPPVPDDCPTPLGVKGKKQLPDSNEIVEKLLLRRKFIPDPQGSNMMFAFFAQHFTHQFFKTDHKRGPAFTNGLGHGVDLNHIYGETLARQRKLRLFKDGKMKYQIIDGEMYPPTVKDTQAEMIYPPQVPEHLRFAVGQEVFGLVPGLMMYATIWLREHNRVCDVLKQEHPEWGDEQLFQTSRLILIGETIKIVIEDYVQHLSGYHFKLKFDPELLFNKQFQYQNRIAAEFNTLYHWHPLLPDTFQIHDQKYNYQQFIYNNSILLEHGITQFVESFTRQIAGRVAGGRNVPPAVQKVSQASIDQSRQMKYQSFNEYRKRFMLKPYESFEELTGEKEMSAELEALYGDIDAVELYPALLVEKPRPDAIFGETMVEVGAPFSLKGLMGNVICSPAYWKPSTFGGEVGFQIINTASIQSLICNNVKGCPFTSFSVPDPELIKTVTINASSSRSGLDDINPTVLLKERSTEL
Excerpt: fluorescent COX inhibitor assay (ADHP), recombinant hCOX-2 on hCOX-2

hCB2 [2] = biological target: T1, hCB2; experiment: forskolin-induced cAMP, GloSensor, CHO-hCB2 cells; assay type: cell-based; conditions: read-out: CHO cells / h CB2 cAMP
Excerpt: forskolin-induced cAMP, GloSensor, CHO-hCB2 cells on hCB2

hCB1 = biological target: T3, hCB1 (Homo sapiens, UniProt P21554); experiment: [3H]CP55, […] displacement, CHO membranes; assay type: binding; conditions: read-out: CHO membranes / h CB 1
T3 construct: gene CNR1; full-length receptor in CHO cell membranes

hCB2 [3] = biological target: T1, hCB2; experiment: [3H]CP55, […] displacement, CHO membranes; assay type: binding
hCB2 [4] = biological target: T1, hCB2; experiment: […]GTPγS binding, CHO-hCB2 membranes; assay type: biochemical; conditions: read-out: CHO membranes / h CB2 [ ^35 S] GTPγS
[5] = read-out: CHO membranes / h CB 2

T1 sequence (P34972 whole entry): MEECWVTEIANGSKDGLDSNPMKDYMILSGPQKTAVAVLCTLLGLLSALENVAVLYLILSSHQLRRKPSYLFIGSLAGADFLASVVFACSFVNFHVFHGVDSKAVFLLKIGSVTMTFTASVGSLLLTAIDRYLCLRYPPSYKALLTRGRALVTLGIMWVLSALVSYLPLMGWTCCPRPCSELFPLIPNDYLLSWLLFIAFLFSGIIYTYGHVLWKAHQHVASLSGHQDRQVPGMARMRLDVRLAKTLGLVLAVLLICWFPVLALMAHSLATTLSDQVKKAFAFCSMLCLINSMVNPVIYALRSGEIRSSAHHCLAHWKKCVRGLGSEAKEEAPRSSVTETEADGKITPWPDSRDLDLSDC
T3 sequence (P21554 whole entry): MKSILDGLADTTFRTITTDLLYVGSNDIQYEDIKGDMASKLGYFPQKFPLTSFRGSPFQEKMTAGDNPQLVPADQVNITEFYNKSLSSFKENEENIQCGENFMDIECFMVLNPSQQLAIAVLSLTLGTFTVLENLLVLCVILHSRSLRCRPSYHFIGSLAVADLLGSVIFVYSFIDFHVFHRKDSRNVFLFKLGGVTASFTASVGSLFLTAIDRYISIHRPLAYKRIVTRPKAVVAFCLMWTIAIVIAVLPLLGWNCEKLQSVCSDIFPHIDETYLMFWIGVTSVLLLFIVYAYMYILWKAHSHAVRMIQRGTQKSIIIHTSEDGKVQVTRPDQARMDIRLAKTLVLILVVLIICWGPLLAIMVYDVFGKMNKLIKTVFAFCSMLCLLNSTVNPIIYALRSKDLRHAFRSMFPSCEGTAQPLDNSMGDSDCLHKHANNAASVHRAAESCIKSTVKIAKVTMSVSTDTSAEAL

Compound | IC50 (hCOX-2) | Ki (hCB1) | Ki (hCB2 [3]; [5]) | other results
CCCCC/C=C\C/C=C\C/C=C\C/C=C\CCCC(=O)OC(CO)CO [2-AG] |  |  |  | EC50 (hCB2 [1]; read-out: EC50): 74 nM
C=CCc1ccc(O)c(-c2ccc(OC)c(CC=C)c2)c1 [MH, 4′-methoxy-5,3′-di-(2-propenyl)-biphenyl-2-ol] |  |  |  | IC50 (hCOX-2; substrate arachidonic acid 10 μM, heme, pH 8, 15 min pre-incubation, RT): 580 ± 80 nM
CCC(C)c1ccc(O)c(-c2cc(C(C)CC)ccc2O)c1 (stereo not shown) [compound 32, 5,5′-di-sec-butyl-biphenyl-2,2′-diol] | 10200 ± 120 nM |  |  | Ki (hCB2 [3]): > 10000 nM

More lines, main results first:

IC50 (hCOX-2) | Ki (hCB1) | Ki (hCB2 [3]; [5]) | Compound | other results
1210 ± 80 nM | 790 ± 100 nM | 110 ± 90 nM | C=CCc1ccc(OC)c(-c2ccc(O)c(CC=C)c2)c1 [27a, 2-methoxy-5,3′-di-(2-propenyl)-biphenyl-4′-ol] | IC50 (hCB2 [2]): 710 ± 90 nM; EC50 (hCB2 [1]; read-out: CHO membranes / h CB2 [ ^35 S] GTPγS): 180 ± 90 nM
4310 ± 100 nM | 1120 ± 150 nM | 350 ± 110 nM | C=CCc1ccc(OCCCC)c(-c2ccc(O)c(CC=C)c2)c1 [34a, 2-butyloxy-5,3′-di-(2-propenyl)-biphenyl-4′-ol] | IC50 (hCB2 [4]): 1820 ± 140 nM
